{
  "source": "patent EP1126030A1",
  "about": "“THIOREDOXIN REDUCTASE II” (priority 1998, dated 2000)",
  "target": "T1, flag-tag fused TxRIIα protein (Homo sapiens, UniProt Q9NNW7)",
  "T1 construct": "made in house",
  "T1 sequence (Q9NNW7 37-524)": "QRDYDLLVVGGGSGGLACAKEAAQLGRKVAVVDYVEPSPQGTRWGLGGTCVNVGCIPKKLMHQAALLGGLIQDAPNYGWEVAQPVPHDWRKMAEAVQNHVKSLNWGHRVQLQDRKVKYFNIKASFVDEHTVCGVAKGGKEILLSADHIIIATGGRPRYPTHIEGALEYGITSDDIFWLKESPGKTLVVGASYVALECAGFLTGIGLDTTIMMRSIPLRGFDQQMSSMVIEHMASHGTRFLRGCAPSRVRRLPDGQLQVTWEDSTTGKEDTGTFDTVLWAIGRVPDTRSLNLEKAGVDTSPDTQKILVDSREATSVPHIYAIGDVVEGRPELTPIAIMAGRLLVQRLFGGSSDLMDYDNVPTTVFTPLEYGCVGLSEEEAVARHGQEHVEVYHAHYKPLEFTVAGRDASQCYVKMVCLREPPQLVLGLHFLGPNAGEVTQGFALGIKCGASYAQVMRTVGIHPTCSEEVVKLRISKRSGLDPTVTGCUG",
  "test": "Inhibitor assay (DTNB assay of TxR activity)",
  "type": "biochemical",
  "conditions": "diluted series of inhibitor; 1 µM flag-tag fused TxRIIα protein, 1 mM NADPH, 10 mM DTNB, pH 7.2; absorbance at 412 nm at 25°C for 5 min (Figure 5)",
  "method": "DTNB assay is a method in which TNB caused by the TxR activity from DTNB is measured by the absorbance of a thiol at 412 nm based on the following reaction formula. The purified tag fused TxRIIα protein (1 to 50 µl) was added to the assay buffer 1 to mess up to 1.0 ml. The absorbance at 412 nm was measured at 25°C for 5 min (Figure 3). DTNB + NADPH + H^+ 2TNB + NADP^+\n100 mM potassium phosphate pH 7.0, 10 mM EDTA, 0.25 mM NADPH, 0.2 mg/ml bovine serum albumin (BSA), 1% ethanol, 1 mM DTNB\nTo compare an enzyme activity of the TxRIIs by the present invention, obtained as a recombinant, and an activity of the natural TxR, an effect of an inhibitor was observed. As an inhibitor for the TxR activity, 1-chloro-2, 4-dinitrobenzene (CDNB) and 13-cis-retinoic acid was used. For confirming the TxR activity, the DTNB assay was used.\nThe diluted series of the inhibitors was prepared with 0.2 ml of HE buffer (100 mM HEPES buffer pH 7.2, 5 mM EDTA) . The tag-fused TxRIIαprotein was prepared at 3 µM and 0.2 ml thereof was added thereto, then 0.2 ml of HE buffer containing 3 mM NADPH and 30 mM DTNB was added thereto. The reaction system of this solution is composed of 100 mM HEPES buffer pH 7.2, 5 mM EDTA, 1 µM flag-tag fused TxRIIα protein, 1 mM NADPH, and 10 mM DTNB. The […] was measured by absorbance of a thiol at 412 nm at 25°C for 5min.",
  "data": [
    {"smiles": "O=[N+]([O-])c1ccc(Cl)c([N+](=O)[O-])c1", "note": "[CDNB, 1-chloro-2,4-dinitrobenzene]", "values": [
      {"measurement": "inhibition of the TxR activity of the purified flag-tag fused TxRIIα protein", "result": "effectively inhibited"}
    ]},
    {"smiles": "CC1=C(/C=C/C(C)=C/C=C/C(C)=C\\C(=O)O)C(C)(C)CCC1", "note": "[13-cis retinoic acid, 13-cis-retinoic acid]", "values": [
      {"measurement": "inhibition of the TxR activity of the purified flag-tag fused TxRIIα protein", "result": "effectively inhibited"}
    ]}
  ]
}
